Activity calls are given as the source filed them. How the calls were made is not given here.
Assay: PubChem AID 624076
Details: Carna kinase panel, IMAP FP / mobility shift, at 10 µM, active compounds read high

inhibition (ABL(E255K)): -2.21% (inactive)
inhibition (ABL(T315I)): 3.27% (inactive)
inhibition (AKT2): 0.832% (inactive)
inhibition (AKT3): 0% (inactive)
inhibition (ALK(R1275Q)): -2.15% (inactive)
inhibition (ARG): -1.99% (inactive)
inhibition (AXL): 6.91% (inactive)
inhibition (AurB): 2.87% (inactive)
inhibition (AurC): 6.65% (inactive)
inhibition (BMPR1A): -9.7% (inactive)
inhibition (BRAF(V600E)): 14% (inactive)
inhibition (BRAF): 53.8%
inhibition (BRK): -3.52% (inactive)
inhibition (BRSK1): 10.2% (inactive)
inhibition (BTK): -3.98% (inactive)
inhibition (CDC7): -7.36% (inactive)
inhibition (CDK3): 42.4% (inactive)
inhibition (CDK5): 51.2%
inhibition (CDK9): 88.1%
inhibition (CHK2): 4.54% (inactive)
inhibition (CK1e): 10.4% (inactive)
inhibition (CK1g1): 85.8%
inhibition (CK2a2/b): 48.7% (inactive)
inhibition (CK1d): 23.2% (inactive)
inhibition (CLK1): 70.5%
inhibition (CLK2): 47.6% (inactive)
inhibition (COT): -1.49% (inactive)
inhibition (CRIK): 1.36% (inactive)
inhibition (CTK): -2.12% (inactive)
inhibition (CaMK2b): 0.457% (inactive)
inhibition (CaMK4): 6.27% (inactive)
inhibition (CaMK1d): 2.64% (inactive)
inhibition (DAPK1): 0.121% (inactive)
inhibition (DCAMKL2): 4.09% (inactive)
inhibition (DLK): -12.2% (inactive)
inhibition (DYRK1B): 20.8% (inactive)
inhibition (DYRK2): 17.2% (inactive)
inhibition (EGFR(L861Q)): 1.1% (inactive)
inhibition (EML4-ALK): -2.55% (inactive)
inhibition (EPHA3): -5.65% (inactive)
inhibition (EPHA5): -4.24% (inactive)
inhibition (EPHA8): -7.66% (inactive)
inhibition (EPHB1): 0.223% (inactive)
inhibition (EPHB4): -0.865% (inactive)
inhibition (FGFR1): 13.1% (inactive)
inhibition (FGFR3(K650E)): 12.5% (inactive)
inhibition (FGFR3(K650M)): 11.8% (inactive)
inhibition (FGFR4(N535K)): 3.65% (inactive)
inhibition (FGFR4(V550L)): 7.1% (inactive)
inhibition (FGFR4): 1.13% (inactive)
inhibition (FLT4): 40.4% (inactive)
inhibition (FMS): 9.78% (inactive)
inhibition (GSK3a): 99.9%
inhibition (HER4): -8.68% (inactive)
inhibition (HIPK1): 15.1% (inactive)
inhibition (HIPK3): 11% (inactive)
inhibition (Haspin): 9.76% (inactive)
inhibition (IGF1R): 0.373% (inactive)
inhibition (IKKb): 7.11% (inactive)
inhibition (IRAK4): -0.123% (inactive)
inhibition (IRR): 2.61% (inactive)
inhibition (JAK2): 5.28% (inactive)
inhibition (JAK3): 18.1% (inactive)
inhibition (JNK1): 11.5% (inactive)
inhibition (JNK2): 18.8% (inactive)
inhibition (JNK3): 16.9% (inactive)
inhibition (KIT(T670I)): 2.37% (inactive)
inhibition (KIT(V560G)): 8.71% (inactive)
inhibition (KIT): 5.43% (inactive)
inhibition (LATS2): 9.73% (inactive)
inhibition (LKB1): 16.6% (inactive)
inhibition (LOK): 4.96% (inactive)
inhibition (LTK): -0.743% (inactive)
inhibition (LYNa): 0.071% (inactive)
inhibition (MAP2K5): -7.9% (inactive)
inhibition (MAP3K1): 8.06% (inactive)
inhibition (MAP3K3): -21.6% (inactive)
inhibition (MAP4K2): 12.9% (inactive)
inhibition (MARK2): 13.3% (inactive)
inhibition (MARK4): 15.4% (inactive)
inhibition (MELK): 53.5%
inhibition (MER): 3.47% (inactive)
inhibition (MGC42105): 6.7% (inactive)
inhibition (MINK): 4.57% (inactive)
inhibition (MLK1): 51.4%
inhibition (MLK2): 0.179% (inactive)
inhibition (MOS): 5.27% (inactive)
inhibition (MSK1): 7.16% (inactive)
inhibition (MST2): 5.83% (inactive)
inhibition (MST4): 8.12% (inactive)
inhibition (NDR1): 2.42% (inactive)
inhibition (NEK1): 15.9% (inactive)
inhibition (NEK2): 8.33% (inactive)
inhibition (NEK6): 2.28% (inactive)
inhibition (NEK7): -3.45% (inactive)
inhibition (PAK3): 14.2% (inactive)
inhibition (PAK4): -9.87% (inactive)
inhibition (PAK5): 7.25% (inactive)
inhibition (PASK): 8.83% (inactive)
inhibition (PBK): 3.01% (inactive)
inhibition (PDGFRa(V561D)): 27% (inactive)
inhibition (PEK): 23.7% (inactive)
inhibition (PGK): -2.42% (inactive)
inhibition (PHKG1): 6.01% (inactive)
inhibition (PIM3): -2.3% (inactive)
inhibition (PKACg): 2.06% (inactive)
inhibition (PKCb2): 10.5% (inactive)
inhibition (PKCd): 15.8% (inactive)
inhibition (PKCg): 8.43% (inactive)
inhibition (PKD1): 24.8% (inactive)
inhibition (PKD2): 19.5% (inactive)
inhibition (PKD3): 40.8% (inactive)
inhibition (PKN1): 14.8% (inactive)
inhibition (PLK1): 59.2%
inhibition (PLK4): -13.5% (inactive)
inhibition (PRKX): 3.31% (inactive)
inhibition (RET(S891A)): 32.1% (inactive)
inhibition (RET(Y791F)): 12.8% (inactive)
inhibition (ROCK1): 0.774% (inactive)
inhibition (ROCK2): 1.96% (inactive)
inhibition (ROS): 11.2% (inactive)
inhibition (RSK1): 19.3% (inactive)
inhibition (RSK2): 19.9% (inactive)
inhibition (RSK4): 30.6% (inactive)
inhibition (SGK3): 0.522% (inactive)
inhibition (SIK): 2.55% (inactive)
inhibition (SLK): 43.3% (inactive)
inhibition (SRC): 2.22% (inactive)
inhibition (SRM): -1.3% (inactive)
inhibition (SRPK1): 17.3% (inactive)
inhibition (SYK): 1.08% (inactive)
inhibition (TAK1-TAB1): 34.1% (inactive)
inhibition (TIE2): 4.06% (inactive)
inhibition (TNK1): 27.1% (inactive)
inhibition (TRKA): 9.49% (inactive)
inhibition (TSSK3): -3.5% (inactive)
inhibition (TTK): -10.8% (inactive)
inhibition (TYK2): -0.177% (inactive)
inhibition (WNK2): 3.23% (inactive)
inhibition (p38d): 2.62% (inactive)
SMILES: Cc1cnc(-c2cnc(NCCNc3ccc(C#N)cn3)nc2-c2ccc(Cl)cc2Cl)[nH]1

— PubChem BioAssay AID624076 (Broad Institute, 2012)
